Active and inactive are the calls of the source.
How the values were obtained:
Cytochrome P450 1A2 = molecular target: T1, Cytochrome P450 1A2 (Homo sapiens, UniProt P05177);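 also: PubChem cytochrome P450 panel assay, CYP1A2 panel member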
T1 sequence (P05177 whole entry): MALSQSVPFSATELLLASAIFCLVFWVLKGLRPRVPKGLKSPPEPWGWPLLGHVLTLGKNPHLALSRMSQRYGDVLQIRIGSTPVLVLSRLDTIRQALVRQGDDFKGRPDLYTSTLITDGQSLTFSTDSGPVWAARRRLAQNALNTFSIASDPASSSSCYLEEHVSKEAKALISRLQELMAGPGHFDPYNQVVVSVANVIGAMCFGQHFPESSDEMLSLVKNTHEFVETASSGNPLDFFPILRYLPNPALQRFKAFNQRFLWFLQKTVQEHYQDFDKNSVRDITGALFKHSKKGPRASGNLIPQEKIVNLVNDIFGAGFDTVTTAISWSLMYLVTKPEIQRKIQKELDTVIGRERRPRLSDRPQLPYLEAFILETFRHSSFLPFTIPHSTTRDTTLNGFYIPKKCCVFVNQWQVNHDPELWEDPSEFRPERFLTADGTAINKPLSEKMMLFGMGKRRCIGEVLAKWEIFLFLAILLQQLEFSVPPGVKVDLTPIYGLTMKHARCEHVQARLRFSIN

Cytochrome P450 2C9 = Cytochrome P450 2C9 (Homo sapiens, UniProt P11712)
Cytochrome P450 2C9, sequence (P11712 whole entry): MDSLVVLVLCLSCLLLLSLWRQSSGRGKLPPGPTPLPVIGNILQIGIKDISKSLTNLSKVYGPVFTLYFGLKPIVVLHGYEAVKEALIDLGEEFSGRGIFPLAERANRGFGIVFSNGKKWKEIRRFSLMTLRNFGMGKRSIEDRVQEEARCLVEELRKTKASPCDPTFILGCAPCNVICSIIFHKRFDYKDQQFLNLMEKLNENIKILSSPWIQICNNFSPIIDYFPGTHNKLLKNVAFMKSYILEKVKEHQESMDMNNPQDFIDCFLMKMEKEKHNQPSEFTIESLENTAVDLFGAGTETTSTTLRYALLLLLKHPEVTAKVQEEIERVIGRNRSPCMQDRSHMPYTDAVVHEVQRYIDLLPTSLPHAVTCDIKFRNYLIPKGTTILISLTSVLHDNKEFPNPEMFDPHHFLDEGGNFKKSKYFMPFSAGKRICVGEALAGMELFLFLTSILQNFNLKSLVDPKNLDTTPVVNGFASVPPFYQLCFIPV

[1] = molecular target: T2, Corticotropin-releasing factor receptor 2/Corticotropin-releasing factor-binding protein (Homo sapiens, UniProt P24387+Q13324); assay: Dose Response confirmation of uHTS hits for small molecule antagonists of the CRF-binding protein and CRF-R2 receptor complex.; format: functional; details: read-out: IC50_Mean
T2 sequence (Q13324 whole entry): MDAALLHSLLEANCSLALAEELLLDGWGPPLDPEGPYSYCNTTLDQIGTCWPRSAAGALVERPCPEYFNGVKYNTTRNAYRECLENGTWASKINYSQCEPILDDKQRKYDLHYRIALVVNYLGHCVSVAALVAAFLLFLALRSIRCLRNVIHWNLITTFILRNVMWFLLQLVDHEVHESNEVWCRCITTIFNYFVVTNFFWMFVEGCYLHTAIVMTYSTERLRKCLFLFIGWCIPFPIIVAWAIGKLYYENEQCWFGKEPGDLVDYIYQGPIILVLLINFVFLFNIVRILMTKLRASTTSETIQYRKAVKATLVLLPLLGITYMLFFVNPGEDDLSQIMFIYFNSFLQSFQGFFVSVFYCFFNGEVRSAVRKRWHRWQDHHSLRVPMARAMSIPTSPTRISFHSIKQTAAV
T2 sequence (P24387 whole entry): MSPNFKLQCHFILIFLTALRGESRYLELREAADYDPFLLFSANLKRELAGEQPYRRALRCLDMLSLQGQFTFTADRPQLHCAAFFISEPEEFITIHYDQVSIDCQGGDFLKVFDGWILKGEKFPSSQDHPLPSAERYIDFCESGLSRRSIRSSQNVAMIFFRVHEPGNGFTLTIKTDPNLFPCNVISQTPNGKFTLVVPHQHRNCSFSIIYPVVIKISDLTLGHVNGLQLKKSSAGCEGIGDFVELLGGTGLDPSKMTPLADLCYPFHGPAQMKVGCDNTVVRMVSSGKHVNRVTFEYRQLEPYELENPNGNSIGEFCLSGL

[2] = molecular target: T2, Corticotropin-releasing factor receptor 2/Corticotropin-releasing factor-binding protein; assay: activators of CRF receptor 2 with binding protein – uHTS hits, confirmation (AID 602473); format: functional; details: read-out: EC50_Mean
[3] = CRF-BP/CRF-R2 complex antagonists, dose response, cell-based, uHTS hits, 384-well (AID 651639); format: functional, Homo sapiens; details: read-out: IC50_Mean
Nonstructural protein 1 = Nonstructural protein 1 (Influenza A virus, UniProt Q194T2); format: functional, Influenza A virus (A/California/07/2009(H1N1))
Nonstructural protein 1, sequence (Q194T2 whole entry): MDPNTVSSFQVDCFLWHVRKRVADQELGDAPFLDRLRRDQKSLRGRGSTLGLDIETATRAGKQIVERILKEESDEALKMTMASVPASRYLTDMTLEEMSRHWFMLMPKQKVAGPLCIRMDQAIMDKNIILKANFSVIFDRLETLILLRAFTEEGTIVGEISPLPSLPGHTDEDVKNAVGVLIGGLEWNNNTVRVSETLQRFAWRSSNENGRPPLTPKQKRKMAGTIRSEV

[4] = molecular target: Ras and Rab interactor 1/Tyrosine-protein kinase ABL1 (Homo sapiens, UniProt P00519+Q13671); format: functional;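 also: biochemical TR-FRET dose-response test measuring inhibition of binding between Rin1 and Abl proteins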
Ras and Rab interactor 1/Tyrosine-protein kinase ABL1, sequence (P00519 whole entry): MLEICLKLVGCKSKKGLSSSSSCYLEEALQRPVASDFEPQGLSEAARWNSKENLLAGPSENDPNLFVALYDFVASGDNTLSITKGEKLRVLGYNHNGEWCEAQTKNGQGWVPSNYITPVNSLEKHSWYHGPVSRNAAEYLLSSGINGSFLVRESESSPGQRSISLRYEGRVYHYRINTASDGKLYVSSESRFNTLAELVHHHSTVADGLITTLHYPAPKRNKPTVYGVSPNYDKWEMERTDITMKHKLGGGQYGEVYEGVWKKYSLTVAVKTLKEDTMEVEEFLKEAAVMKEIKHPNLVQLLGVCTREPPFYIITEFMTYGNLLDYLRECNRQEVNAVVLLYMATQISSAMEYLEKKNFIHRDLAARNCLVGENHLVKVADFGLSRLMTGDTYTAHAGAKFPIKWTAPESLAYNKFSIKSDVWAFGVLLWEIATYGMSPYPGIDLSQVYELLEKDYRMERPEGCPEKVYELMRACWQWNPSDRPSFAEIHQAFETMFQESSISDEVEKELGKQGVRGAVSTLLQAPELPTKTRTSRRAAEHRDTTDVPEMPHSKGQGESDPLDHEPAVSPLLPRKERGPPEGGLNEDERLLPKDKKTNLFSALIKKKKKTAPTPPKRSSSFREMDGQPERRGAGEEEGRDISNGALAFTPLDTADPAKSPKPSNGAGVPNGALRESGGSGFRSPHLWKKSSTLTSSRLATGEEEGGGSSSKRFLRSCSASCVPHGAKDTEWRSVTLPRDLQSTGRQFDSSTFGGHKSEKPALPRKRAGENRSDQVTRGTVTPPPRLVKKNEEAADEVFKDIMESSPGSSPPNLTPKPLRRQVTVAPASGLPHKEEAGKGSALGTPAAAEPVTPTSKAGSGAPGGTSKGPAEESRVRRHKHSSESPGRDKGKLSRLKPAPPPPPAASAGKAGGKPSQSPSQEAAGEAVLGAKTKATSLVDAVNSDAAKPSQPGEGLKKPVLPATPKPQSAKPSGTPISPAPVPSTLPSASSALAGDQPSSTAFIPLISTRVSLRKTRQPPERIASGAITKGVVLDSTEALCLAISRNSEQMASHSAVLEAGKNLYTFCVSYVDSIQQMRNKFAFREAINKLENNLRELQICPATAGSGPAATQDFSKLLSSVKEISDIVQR
Ras and Rab interactor 1/Tyrosine-protein kinase ABL1, sequence (Q13671 whole entry): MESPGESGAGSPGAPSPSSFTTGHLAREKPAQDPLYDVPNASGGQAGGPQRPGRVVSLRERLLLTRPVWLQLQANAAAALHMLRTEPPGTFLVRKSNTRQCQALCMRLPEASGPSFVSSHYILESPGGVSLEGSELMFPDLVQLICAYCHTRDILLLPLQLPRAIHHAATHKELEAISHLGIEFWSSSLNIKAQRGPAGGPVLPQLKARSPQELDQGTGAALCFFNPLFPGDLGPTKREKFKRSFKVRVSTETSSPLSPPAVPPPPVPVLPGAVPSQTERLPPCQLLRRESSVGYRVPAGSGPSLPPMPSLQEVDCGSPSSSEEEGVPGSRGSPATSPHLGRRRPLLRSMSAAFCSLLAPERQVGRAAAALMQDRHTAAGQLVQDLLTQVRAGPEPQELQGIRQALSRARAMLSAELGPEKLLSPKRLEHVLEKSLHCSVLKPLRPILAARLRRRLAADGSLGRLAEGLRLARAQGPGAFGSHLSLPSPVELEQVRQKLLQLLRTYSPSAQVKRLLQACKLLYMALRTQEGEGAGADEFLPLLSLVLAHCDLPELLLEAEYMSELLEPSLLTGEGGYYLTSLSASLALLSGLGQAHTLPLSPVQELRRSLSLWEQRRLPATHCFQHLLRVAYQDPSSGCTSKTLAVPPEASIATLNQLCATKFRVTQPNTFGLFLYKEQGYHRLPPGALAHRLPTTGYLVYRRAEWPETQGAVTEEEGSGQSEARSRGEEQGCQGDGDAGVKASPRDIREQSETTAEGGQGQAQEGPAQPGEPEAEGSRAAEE

Cytochrome P450 2C19 = Cytochrome P450 2C19 (Homo sapiens, UniProt P33261); assay: Cytochrome panel assay with activity outcomes. Panel member name: p450-cyp2c19 Compounds with AC50 equal or less than 10 uM are considered active; format: functional; details: read-out: AC50
Cytochrome P450 2C19, sequence (P33261 whole entry): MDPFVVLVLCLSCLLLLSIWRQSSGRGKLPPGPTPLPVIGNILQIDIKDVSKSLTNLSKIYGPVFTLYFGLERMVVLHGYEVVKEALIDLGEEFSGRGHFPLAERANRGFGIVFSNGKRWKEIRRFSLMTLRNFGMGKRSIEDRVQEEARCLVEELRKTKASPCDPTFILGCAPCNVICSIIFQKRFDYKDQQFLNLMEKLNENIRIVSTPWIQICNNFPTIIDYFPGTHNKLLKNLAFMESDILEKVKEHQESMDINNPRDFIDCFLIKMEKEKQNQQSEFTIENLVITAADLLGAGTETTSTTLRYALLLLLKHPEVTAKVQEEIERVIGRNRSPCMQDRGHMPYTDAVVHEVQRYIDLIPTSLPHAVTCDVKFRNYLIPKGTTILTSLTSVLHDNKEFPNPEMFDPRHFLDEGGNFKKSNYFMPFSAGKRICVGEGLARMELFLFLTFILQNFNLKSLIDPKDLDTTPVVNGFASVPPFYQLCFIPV

Cytochrome P450 3A4 = Cytochrome P450 3A4 (Homo sapiens, UniProt P08684);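 also: CYP3A4 tested as one member of a cytochrome P450 panel screen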
Cytochrome P450 3A4, sequence (P08684 whole entry): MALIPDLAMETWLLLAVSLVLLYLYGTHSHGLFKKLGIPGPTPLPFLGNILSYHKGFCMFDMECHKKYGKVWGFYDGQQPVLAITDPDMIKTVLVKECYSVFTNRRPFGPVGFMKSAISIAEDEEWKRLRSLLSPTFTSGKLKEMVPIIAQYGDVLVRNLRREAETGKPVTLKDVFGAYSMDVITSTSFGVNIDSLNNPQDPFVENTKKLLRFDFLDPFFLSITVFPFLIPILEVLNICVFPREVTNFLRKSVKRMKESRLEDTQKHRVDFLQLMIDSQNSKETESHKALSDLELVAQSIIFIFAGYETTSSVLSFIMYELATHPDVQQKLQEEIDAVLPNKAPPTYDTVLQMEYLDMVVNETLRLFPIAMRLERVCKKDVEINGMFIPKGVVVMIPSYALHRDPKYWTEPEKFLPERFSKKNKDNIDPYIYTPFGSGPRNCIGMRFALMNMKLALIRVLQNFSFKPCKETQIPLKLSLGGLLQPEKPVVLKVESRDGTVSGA

[5] = molecular target: T3, Adenosylmethionine-8-amino-7-oxononanoate aminotransferase (Mycobacterium tuberculosis, UniProt P9WQ81); assay: Mycobacterium tuberculosis BioA enzyme inhibitor Measured in Biochemical System Using Plate Reader - 2163-02_Inhibitor_Dose_CherryPick_Activity.; format: functional, Mycobacterium tuberculosis UT205
T3 sequence (P9WQ81 whole entry): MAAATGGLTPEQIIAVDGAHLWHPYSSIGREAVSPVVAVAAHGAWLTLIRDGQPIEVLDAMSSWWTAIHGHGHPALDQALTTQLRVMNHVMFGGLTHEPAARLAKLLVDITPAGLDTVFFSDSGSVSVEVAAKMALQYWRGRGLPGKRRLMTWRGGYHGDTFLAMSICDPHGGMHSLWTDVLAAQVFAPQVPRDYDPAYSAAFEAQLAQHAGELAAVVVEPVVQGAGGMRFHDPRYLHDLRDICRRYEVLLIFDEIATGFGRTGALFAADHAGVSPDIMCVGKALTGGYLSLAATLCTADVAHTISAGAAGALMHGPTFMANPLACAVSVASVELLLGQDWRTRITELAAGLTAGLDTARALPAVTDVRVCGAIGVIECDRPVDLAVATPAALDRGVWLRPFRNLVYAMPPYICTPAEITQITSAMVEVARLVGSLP

INS1 = assay: beta cell apoptosis inhibitors, cytokine rescue, dose response, luminescence, retest (AID 449756); format: functional, cell-based; details: Rattus norvegicus;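 also: cell death triggered by IL-1 beta plus TNF-alpha plus IFN-gamma mixture; protective hits raise ATP signal compared with cytokine alone wells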
[6] = Shn3 3'UTR reporter inhibitors, dose response, cell-based, Clone20 osteoblasts, firefly luciferase, cherry-picked (AID 624132); format: functional;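 also: firefly luciferase luminescence from reporter carrying the Shn3 3'UTR in osteoblasts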
[7] = HepG2 cell cytotoxicity, dose response, cytotoxicity control for Shn3 inhibitor project, CellTiter-Glo, cherry-picked (AID 624134); format: functional, cell-based
[8] = control 3'UTR Renilla luciferase suppression, dose response, counter-screen for Shn3 inhibitor project, cell-based, Clone20-Shn3RL, cherry-picked (AID 624133); format: functional
Protein Wnt-3a = Protein Wnt-3a (Mus musculus, UniProt P27467); assay: Wnt3a-driven reporter signaling inhibition, dose response, selectivity assay for Gli-SUFU antagonist project, Wnt-LIGHT cells, luminescence (AID 651570); format: functional; details: read-out: IC50_Mean;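 also: Wnt-LIGHT reporter cells stimulated with conditioned medium from Wnt3a-producing cells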
Protein Wnt-3a, sequence (P27467 whole entry): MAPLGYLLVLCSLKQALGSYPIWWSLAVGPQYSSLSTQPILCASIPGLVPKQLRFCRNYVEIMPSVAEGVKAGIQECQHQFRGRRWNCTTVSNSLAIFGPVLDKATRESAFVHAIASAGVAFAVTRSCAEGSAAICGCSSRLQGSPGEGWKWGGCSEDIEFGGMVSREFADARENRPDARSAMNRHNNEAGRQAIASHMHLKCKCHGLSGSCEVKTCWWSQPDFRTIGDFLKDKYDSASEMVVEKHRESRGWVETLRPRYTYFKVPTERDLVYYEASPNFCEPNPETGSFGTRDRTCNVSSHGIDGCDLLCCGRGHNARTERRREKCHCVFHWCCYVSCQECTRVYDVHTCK

Which AC50 (Cytochrome P450 1A2) does the source give for `O=C(c1cc(-c2ccco2)on1)N1CCOCC1` here?
The AC50 was 0.0251 µM (inconclusive).

What about the AC50 (Cytochrome P450 2C9) of the same molecule?
Its AC50 is “inconclusive”.

Which results are given for `CN(C)c1ccc(C=C2C(=O)OC3(CCCC3)OC2=O)cc1`?
IC50 [1]: 2.41 µM (active); EC50 [2]: 44.2 µM (active); IC50 [3]: 2.36 µM (active)

With `CCOc1ccc(N/N=C2\C(=O)Nn3c2nc2c(c3=O)CCCC2)cc1` as the molecule, how does the IC50 (Nonstructural protein 1) read?
Its IC50 is > 100 µM (active).

And the IC50 [1]?
The IC50 was 4.73 µM (active).

And the EC50 [2]?
The EC50 was > 53 µM (inactive).

And the IC50 [3]?
The IC50 was > 20 µM (inactive).

For `COc1ccc(NC(=O)CN(C)C(=O)Cc2ccc(S(=O)(=O)N3CCOCC3)s2)cc1`, which IC50 [4] is on record?
The IC50 was 2.03 µM (active).

Which AC50 (Cytochrome P450 2C19) does the source give for `CCn1c(C)nc2c1C(=O)c1ccccc1C2=O` here?
Its AC50 is 20 µM (inconclusive).

What about the AC50 (Cytochrome P450 3A4) of the same molecule?
The AC50 was 20 µM (inconclusive).

What about the AC50 (Cytochrome P450 2C9) of the same molecule?
The AC50 was “inconclusive”.

With `Cc1nc2c(C(=O)N3CCN(c4ccccn4)CC3)cnn2c(C)c1Cc1cccc(Cl)c1` as the molecule, how does the AC50 [5] read?
Its AC50 is 3.39 µM (active).

For `CCn1/c(=N\C(=O)CCS(=O)(=O)c2ccccc2)sc2cccc(OC)c21`, which AC50 (INS1) is on record?
Its AC50 is 5.08 µM (active).

What about the AC50 [6] of the same molecule?
Its AC50 is 1.28 µM (active).

And the AC50 [7]?
The AC50 was > 70 µM (inactive).

And the AC50 [8]?
The AC50 was 3.05 µM (active).

And the IC50 (Protein Wnt-3a)?
The IC50 was 0.803 µM (active).

— ChEMBL document CHEMBL1201862, “PubChem BioAssay data set” (2004)
